Measurements: patent US8168651B2, “Protein kinase modulators” (Cylene Pharmaceuticals, Inc., priority 2008, dated 2012)
Where two headings read alike, the source gives them in different places.

Assays:
[1] = system: PC-3 human prostatic cancer cells; assay: Cell-proliferation assay using Alamar Blue dye; format: cell-based; conditions: read-out: PC3 IC50
Experimental: (§1) A representative cell-proliferation assay protocol using Alamar Blue dye (stored at 4° C., use 20 ul per well) is described hereafter.
(§2) • a. Split and trypsinize cells. • b. Count cells using hemocytometer. • c. Plate 4,000-5,000 cells per well in 100 μl of medium and seed into a 96-well plate according to the following plate layout. Add cell culture medium only to wells B10 to B12. Wells B1 to B9 have cells but no compound added.
(§3) • d. Add 100 μl of 2× drug dilution to each well in a concentration shown in the plate layout above. At the same time, add 100 μl of media into the control wells (wells B10 to B12). Total volume is 200 μl/well. • e. Incubate four (4) days at 37° C., 5% CO2 in a humidified incubator. • f. Add 20 μl Alamar Blue reagent to each well. • g. Incubate for four (4) hours at 37° C., 5% CO2 in a humidified incubator. • h. Record fluorescence at an excitation wavelength of 544 nm and emission wavelength of 590 nm using a microplate reader.
(§4) In the assays, cells are cultured with a test compound for approximately four days, the dye then is added to the cells and fluorescence of […] dye is detected after approximately four hours. Different types of cells can be utilized in the assays (e.g., HCT-116 human colorectal carcinoma cells, PC-3 human prostatic cancer cells and MiaPaca human pancreatic carcinoma cells). Anti-proliferative effects of representative compounds are provided hereafter

K-562 [2] = assay: K-562 IC50 (Table 46); format: cell-based; conditions: Homo sapiens, K562
MDA MB231 = MDA MB231 IC50 (Table 46); format: cell-based; conditions: Homo sapiens, MDA-MB-231
MV-411 = MV-411 IC50 (Table 46); format: cell-based; conditions: Homo sapiens, MV4-11
[3] = system: MiaPaca human pancreatic carcinoma cells; assay: Cell-proliferation assay using Alamar Blue dye; format: cell-based; conditions: MIA PaCa-2
Experimental: as §1, §2, §3, §4

recombinant human PIM1 = recombinant human PIM1 (Homo sapiens (Human), UniProt P11309); assay: PIM-1 kinase activity in cell-free in vitro assay; format: biochemical; conditions: for inhibition at 0.5 µM: 500 nM compound, read-out: PIM-1: % inh 500 nM
recombinant human PIM1, sequence (P11309 whole entry): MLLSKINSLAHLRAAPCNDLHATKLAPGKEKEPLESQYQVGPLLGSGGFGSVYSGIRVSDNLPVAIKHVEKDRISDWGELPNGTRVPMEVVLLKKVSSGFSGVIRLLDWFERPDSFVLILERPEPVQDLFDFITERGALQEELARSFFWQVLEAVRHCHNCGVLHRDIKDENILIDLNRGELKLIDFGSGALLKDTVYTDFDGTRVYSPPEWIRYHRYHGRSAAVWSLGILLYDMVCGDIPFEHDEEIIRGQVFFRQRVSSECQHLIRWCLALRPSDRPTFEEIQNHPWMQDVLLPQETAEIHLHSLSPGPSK

FLT3 autophos = FLT3 autophos (Homo sapiens (Human), UniProt P36888); assay: FLT3 autophos IC50 (Table 46); format: cell-based
FLT3 autophos, sequence (P36888 27-993): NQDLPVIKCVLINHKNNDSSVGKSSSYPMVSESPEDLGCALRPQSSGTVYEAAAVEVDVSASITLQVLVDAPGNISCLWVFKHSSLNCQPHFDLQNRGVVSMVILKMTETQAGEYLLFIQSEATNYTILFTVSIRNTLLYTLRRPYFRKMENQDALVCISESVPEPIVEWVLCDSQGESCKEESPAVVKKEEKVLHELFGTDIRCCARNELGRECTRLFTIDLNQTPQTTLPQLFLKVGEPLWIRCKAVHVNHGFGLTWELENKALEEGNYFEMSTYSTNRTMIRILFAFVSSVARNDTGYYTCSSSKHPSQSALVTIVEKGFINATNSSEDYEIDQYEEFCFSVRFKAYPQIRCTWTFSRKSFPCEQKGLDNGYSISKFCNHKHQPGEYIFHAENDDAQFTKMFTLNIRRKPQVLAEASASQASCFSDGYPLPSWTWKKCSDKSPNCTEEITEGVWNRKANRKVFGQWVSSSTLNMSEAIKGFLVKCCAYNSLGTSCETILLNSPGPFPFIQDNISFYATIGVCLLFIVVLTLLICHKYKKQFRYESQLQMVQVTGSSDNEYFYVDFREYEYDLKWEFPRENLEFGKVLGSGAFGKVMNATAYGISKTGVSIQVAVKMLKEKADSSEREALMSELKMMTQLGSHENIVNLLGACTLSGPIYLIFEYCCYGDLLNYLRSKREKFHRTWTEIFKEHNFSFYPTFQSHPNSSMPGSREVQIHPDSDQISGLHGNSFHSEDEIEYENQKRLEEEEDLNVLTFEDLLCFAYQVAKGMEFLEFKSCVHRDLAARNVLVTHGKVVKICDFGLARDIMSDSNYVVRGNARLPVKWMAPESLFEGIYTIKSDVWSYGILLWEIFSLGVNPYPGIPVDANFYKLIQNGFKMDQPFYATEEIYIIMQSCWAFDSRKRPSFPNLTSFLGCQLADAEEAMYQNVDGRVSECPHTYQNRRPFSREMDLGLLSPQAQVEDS

phospho-BAD ser112 = phospho-BAD ser112 IC50 (Table 46); format: cell-based
PARP-HSA enzyme = PARP-HSA enzyme (Homo sapiens (Human), UniProt P09874); assay: PARP assay (chemiluminescent PARP assay kit, Trevigen); format: biochemical; conditions: for IC50: read-out: PARP Inhibition IC50; for PARP Inhibition: at 1 μM
PARP-HSA enzyme, sequence (P09874 whole entry): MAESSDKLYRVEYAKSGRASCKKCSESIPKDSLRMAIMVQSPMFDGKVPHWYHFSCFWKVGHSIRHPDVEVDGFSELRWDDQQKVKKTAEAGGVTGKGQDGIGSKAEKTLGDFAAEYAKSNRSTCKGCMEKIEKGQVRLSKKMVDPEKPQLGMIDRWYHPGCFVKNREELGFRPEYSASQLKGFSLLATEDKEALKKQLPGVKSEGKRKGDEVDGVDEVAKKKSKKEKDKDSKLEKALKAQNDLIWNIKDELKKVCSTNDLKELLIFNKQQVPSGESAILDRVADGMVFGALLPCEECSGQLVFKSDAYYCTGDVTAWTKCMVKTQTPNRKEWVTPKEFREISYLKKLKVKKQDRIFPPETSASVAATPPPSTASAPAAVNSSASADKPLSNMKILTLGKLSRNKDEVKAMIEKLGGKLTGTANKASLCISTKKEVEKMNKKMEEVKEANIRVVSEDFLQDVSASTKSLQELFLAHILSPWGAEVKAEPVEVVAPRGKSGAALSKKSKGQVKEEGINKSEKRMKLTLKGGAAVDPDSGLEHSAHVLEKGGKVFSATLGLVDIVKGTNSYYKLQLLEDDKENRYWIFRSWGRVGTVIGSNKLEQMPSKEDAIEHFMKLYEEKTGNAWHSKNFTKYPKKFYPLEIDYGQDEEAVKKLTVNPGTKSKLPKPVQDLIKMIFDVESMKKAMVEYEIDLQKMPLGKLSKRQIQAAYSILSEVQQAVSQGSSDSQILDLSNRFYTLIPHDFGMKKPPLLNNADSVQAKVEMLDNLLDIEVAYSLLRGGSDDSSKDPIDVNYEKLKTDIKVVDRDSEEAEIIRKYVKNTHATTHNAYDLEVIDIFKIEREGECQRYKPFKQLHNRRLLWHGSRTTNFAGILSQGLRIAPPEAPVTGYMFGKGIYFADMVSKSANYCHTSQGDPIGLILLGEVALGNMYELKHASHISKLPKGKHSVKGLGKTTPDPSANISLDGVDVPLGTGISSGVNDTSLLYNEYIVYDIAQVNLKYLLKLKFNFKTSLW
Experimental: Modulatory activity of compounds described herein was assessed in vitro in cell-free CK2 assays. Modulatory activity of compounds described herein also are assessed in vitro in cell-free PARP assays. These assays are described hereafter.
PARP assays are conducted using a chemiluminescent PARP assay kit (Trevigen). Briefly, reactions are performed in Histone-coated strip wells, by adding 10 microliters test compound dissolved in 1×PARP Buffer (prepared by mixing 20×PARP buffer diluted with high-purity water) and 15 microliters diluted PARP-HSA enzyme (diluted in 1×PARP buffer, 0.1 unit per well) to 25 microliters PARP cocktail (prepared from 10×PARP cocktail and 10× activated DNA, both 2.5 microliters per well and 20 microliters per well of 1×PARP buffer). The reactions are incubated at ambient temperature for 60 minutes, then the liquid was removed. After washing the wells four times with PBS (200 ul), 50 microliters of STREP-HRP (Horseradish Peroxidase) solution (diluted 500-fold in 1× Strep-Diluent) was added and the reactions were allowed to incubate for 30 minutes at ambient temperature. The liquid was removed and, after washing the wells four times with PBS (200 ul), 50 microliters each of PeroxyGlo A and B (Chemiluminescent Horseradish Peroxidase substrates) are added and the resulting chemiluminescence quantified on the SpectraMax M5 plate reader.

recombinant human CK2 = recombinant human CK2 (Homo sapiens (Human), UniProt P68400); assay: CK2 assay (cell-free, 33P-ATP filter plate); format: biochemical
recombinant human CK2, sequence (P68400 whole entry): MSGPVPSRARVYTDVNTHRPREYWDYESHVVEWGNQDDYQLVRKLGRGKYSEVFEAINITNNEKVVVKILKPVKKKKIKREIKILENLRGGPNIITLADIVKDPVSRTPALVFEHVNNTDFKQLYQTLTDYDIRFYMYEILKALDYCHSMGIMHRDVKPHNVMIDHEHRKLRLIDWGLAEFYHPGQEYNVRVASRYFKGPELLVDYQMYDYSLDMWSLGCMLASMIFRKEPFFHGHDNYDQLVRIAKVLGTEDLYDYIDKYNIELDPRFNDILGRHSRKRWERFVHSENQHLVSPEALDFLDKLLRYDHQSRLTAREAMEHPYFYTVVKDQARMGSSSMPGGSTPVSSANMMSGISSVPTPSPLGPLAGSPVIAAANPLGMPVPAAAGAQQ
recombinant human CK2, sequence (P67870 whole entry partner): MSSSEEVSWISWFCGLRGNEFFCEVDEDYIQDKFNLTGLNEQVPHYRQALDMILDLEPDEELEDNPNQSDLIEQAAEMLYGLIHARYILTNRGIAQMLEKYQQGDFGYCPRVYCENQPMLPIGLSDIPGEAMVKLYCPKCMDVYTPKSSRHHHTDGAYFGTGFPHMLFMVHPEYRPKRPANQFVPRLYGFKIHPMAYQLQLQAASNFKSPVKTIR

[4] = Pharmacokinetics after IV and PO dose in ICR mice; format: in vivo; conditions: for half-life: mouse, plasma
Experimental: […] Blood samples were collected at predetermined times and the plasma separated. Plasma was separated from the blood samples collected at 5, 15 and 30 minutes and 1, 2, 4, 8 and 24 hours post-dose.
Drug levels were quantified by the LC/MS/MS method described below. Noncompartmental pharmacokinetic analysis was applied for intravenous administration. A linear trapezoidal rule was used to compute AUC(0-24). The terminal t1/2 and C0 were calculated using the last three and the first three data points, respectively
Bioanalysis was performed using a Quattro Micro LC/MS/MS instrument in the MRM detection mode, with an internal standard (IS). Briefly, 15 µL plasma samples were prepared for analysis using protein precipitation with 120 μL of acetonitrile. The supernatants were transferred into a 96 well plate and subjected to LC-MS/MS analysis using a Phenomenex Polar-RP HPLC column. The mobile phases were 10 mM NH4HCO3 in water (Solution-A) and 10 mM NH4HCO3 in methanol (Solution-B). […] Quantitation of the analytes was performed in the batch mode with two bracketing calibration curves according to the bioanalytical sample list.

MV-4-11 = assay: Cell proliferation modulatory activity, MV-4-11; format: cell-based; conditions: Homo sapiens, MV4-11
Jurkat = assay: Cell proliferation modulatory activity, Jurkat; format: cell-based; conditions: Homo sapiens
[5] = system: HCT-116 human colorectal carcinoma cells; assay: Cell-proliferation assay using Alamar Blue dye; format: cell-based; conditions: Homo sapiens, HCT-116, HCT-116, second column; read-out: HCT-116 (uM), cell proliferation modulatory activity;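 note: cells exposed to compound for about 4 days, then Alamar Blue added and dye fluorescence read after about 4 h, compared with medium-only control wells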
K-562 [6] = assay: Cell proliferation modulatory activity, K-562; format: cell-based; conditions: Homo sapiens, K562

SMILES	IC50 [1] [µM]	IC50 (K-562 [2]) [nM]	IC50 (MDA MB231) [nM]	IC50 (MV-411) [nM]	IC50 (recombinant human PIM1) [nM]	further results
CN(C)CCOc1ccc(Nc2nc3c(-c4nnc[nH]4)cccc3c3cnccc23)c(F)c1	12	< 1000	2180	< 100		
CN1CCN(c2ccc(Nc3nc4c(-c5nnc[nH]5)cccc4c4cnccc34)c(Cl)c2)CC1	3.66	< 1000	2940	< 100		IC50 [3]: 1500 nM
COCCOc1ccc(Nc2nc3c(-c4nnc[nH]4)cccc3c3cnccc23)c(F)c1		< 500	< 1000	< 100	< 100	IC50 [3]: < 1000 nM
Fc1cc(OCCN2CCCC2)ccc1Nc1nc2c(-c3nnc[nH]3)cccc2c2cnccc12		< 500	< 1000	< 100	< 100	IC50 (FLT3 autophos): > 10 µM; IC50 (phospho-BAD ser112): < 100 nM
CN(C)CCOc1ccc(Nc2nc3c(-c4nnc[nH]4)cccc3c3cnccc23)cc1	1.77	< 100	2560	< 100	< 100	IC50 (FLT3 autophos): > 10 µM; IC50 (phospho-BAD ser112): < 100 nM
CN(C)CCOc1ccc(Nc2nc3c(-c4nnc[nH]4)cccc3c3cnccc23)c(Cl)c1		6940	1230	< 100	< 100	IC50 (FLT3 autophos): 5.41 µM; IC50 (phospho-BAD ser112): < 100 nM
CS(=O)(=O)c1ccc(Nc2nc3c(-c4nnc[nH]4)cccc3c3cnccc23)c(Cl)c1	1.51	2660	2730	< 100	< 100	
CCOC(=O)c1ccc(Nc2nc3c(-c4nnc[nH]4)cccc3c3cnccc23)c(Cl)c1	> 30	> 10000	> 10000	< 100	< 100	IC50 [3]: > 10000 nM
Oc1ccc(Nc2nc3c(-c4nnc[nH]4)cccc3c3cnccc23)c(Cl)c1	< 0.5	< 500	2380	> 10000	< 100	IC50 [3]: < 1000 nM
O=C(O)c1ccc2c(c1)nc(OCCCO)c1ccccc12 [drawing 559]						IC50 (PARP-HSA enzyme): 400 nM; inhibition at 5 µM (recombinant human CK2; at 5 μM, read-out: CK2 Inhibition): 38%
COC(=O)c1ccc2c(c1)[nH]c(=O)c1ccncc12 [drawing 562]						IC50 (PARP-HSA enzyme): 800 nM
CN(C)CCNc1nc2cc(C(=O)O)ccc2c2ccccc12 [drawing 563]						PARP Inhibition (PARP-HSA enzyme): 15% (at 1 μM)
O=C(O)c1ccc2c(c1)nc(Nc1ccccc1)c1ccccc12 [drawing 564]						PARP Inhibition (PARP-HSA enzyme): 9% (at 1 μM)
COC(=O)c1ccc2c(c1)nc(Cl)c1ccsc12 [drawing 695]						PARP % inhib @ 1 uM (PARP-HSA enzyme; 1 uM): 18%; inhibition at 10 µM (recombinant human CK2; 10 uM, read-out: CK2 % inhib @ 10 uM): 18%
C#Cc1cccc(Nc2nc3cc(C(=O)O)ccc3c3cncnc23)c1 [drawing 1129]						F(0-24 h) ([4]; PO 24.5 mg/kg): 26.5%; F(0-Inf) ([4]; PO 24.5 mg/kg): 31.1%; Kel ([4]; PO 24.5 mg/kg): 0.0594 h⁻¹; half-life ([4]; IV 3.4 mg/kg): 294 min; half-life ([4]; PO 24.5 mg/kg): 702 min
O=C(O)c1ccc2c(c1)nc(Nc1cccc(Cl)c1)c1ccncc12 [drawing 1512]						IC50 (MV-4-11): 1.68 µM; IC50 (Jurkat): 3.42 µM; IC50 [5]: 5.09 µM; IC50 (K-562 [6]): 4.39 µM; inhibition at 0.5 µM (recombinant human PIM1; cell-free): 90%; inhibition at 0.5 µM (recombinant human CK2; 500 nM compound, cell-free, read-out: CK2: % inh 500 nM): 102%
C#Cc1cccc(Nc2nc3cc(C(=O)O)ccc3c3cncnc23)c1 [drawing 1544]						IC50 (MV-4-11): 0.464 µM; IC50 (Jurkat): 3.34 µM; IC50 [5]: 5.86 µM; IC50 (K-562 [6]): 2.48 µM; inhibition at 0.5 µM (recombinant human PIM1; cell-free): 65.9%; IC50 (recombinant human PIM1; cell-free): 306 nM
CNC(=O)c1cccc2c1nc(Nc1cccc(Cl)c1)c1ccncc12 [drawing 2307]	> 30	> 10000	> 10000	< 100	< 100	IC50 [3]: < 500 nM
